Test results taken from patent US10149838B2, “Small molecule securinine and norsecurinine analogs and their use in inhibiting myeloperoxidase” (MiRx Pharmaceuticals, LLC, priority 2013, dated 2018).

What was measured:
MPO [1] = target: T1, MPO (Homo sapiens, UniProt P05164); assay: MALDI-TOF analysis of heme and heme/compound conjugate in presence of H2O2; format: binding; parameters: purchased Cayman Chemical 700170
T1 sequence (P05164 49-745): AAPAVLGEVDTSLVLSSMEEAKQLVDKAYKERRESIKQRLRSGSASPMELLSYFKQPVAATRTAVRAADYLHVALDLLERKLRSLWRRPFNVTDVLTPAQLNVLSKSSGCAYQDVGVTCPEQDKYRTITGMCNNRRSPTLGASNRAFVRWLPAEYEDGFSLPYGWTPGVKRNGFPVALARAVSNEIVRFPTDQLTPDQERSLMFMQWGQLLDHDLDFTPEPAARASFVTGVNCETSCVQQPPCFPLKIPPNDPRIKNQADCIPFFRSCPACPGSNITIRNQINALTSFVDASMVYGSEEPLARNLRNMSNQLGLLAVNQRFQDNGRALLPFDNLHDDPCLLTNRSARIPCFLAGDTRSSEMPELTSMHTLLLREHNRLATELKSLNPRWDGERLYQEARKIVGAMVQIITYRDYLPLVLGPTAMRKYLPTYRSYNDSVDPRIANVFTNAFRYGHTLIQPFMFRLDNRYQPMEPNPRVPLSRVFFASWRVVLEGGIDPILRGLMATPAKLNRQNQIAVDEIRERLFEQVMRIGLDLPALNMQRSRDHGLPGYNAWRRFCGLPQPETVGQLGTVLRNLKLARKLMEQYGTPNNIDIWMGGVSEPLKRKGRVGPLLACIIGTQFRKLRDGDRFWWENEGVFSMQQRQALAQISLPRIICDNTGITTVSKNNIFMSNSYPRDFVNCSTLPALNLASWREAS
Description: (§1) Only MPO (red) and H2O2 promoted a shift in the Soret peak, formation of a new band at 630 nm (blue).
To determine the binding motif/active site of MPO and the compound of interest, a computational docking analysis using a 2.5 A crystal structure (PDB id 3ZSO) was performed. The heme ‘m’ in myeloperoxidase contains two ester bonds at the heme 1 and 5-methyls. In addition, a unique sulfonium ion linkage was observed. […] An inhibitory action of the myeloperoxidase is predicted when such covalent links are formed. Especially docking position of 184B unique and have visible effect on the Hisitidine 336 coordinated iron (FIG. 6E). These docking results explain the observed effects of 184B on the soret peak (˜433). Further MALDI-TOF analysis of heme (un conjugated) and heme/184B conjugated (in presence of H2O2) complexes are liberated from protein and analyzed ions with an ˜m/z>1040, which would be the mass of conjugated heme and 184B compare to unconjugated control only heme (m/z˜694) (FIG. 6F).

thyroid peroxidase = target: T2, thyroid peroxidase (Homo sapiens, UniProt P07202); assay: Oxidation of ascorbate by thyroid peroxidase and iodide (iodination activity); format: biochemical; settings: 10 μM, iodide
T2 sequence (P07202 19-933): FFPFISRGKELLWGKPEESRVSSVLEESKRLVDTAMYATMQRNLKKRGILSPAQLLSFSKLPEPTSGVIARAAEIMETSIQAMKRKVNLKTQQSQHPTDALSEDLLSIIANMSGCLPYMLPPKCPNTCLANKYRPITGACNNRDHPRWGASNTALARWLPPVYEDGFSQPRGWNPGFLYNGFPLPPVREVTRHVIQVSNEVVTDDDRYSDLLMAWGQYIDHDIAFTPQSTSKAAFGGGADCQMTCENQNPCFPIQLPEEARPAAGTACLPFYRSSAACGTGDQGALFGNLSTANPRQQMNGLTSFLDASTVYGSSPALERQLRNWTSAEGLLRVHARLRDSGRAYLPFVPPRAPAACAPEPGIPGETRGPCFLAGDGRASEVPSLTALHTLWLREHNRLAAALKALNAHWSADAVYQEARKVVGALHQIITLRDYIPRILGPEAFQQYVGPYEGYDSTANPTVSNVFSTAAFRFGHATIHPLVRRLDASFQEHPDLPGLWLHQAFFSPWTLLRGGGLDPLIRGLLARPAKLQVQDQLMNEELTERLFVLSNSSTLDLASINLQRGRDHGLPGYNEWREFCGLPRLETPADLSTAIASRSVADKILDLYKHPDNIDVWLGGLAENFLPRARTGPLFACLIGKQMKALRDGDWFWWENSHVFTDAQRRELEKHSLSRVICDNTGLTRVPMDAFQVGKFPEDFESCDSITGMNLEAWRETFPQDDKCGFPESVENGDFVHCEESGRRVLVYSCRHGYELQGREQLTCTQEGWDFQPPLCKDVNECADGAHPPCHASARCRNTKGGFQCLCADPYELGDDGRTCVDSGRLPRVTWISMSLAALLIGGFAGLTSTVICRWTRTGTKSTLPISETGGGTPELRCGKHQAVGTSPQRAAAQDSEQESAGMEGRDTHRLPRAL
Description: (§2) All Results are representative of duplicate experiments
(§3) To determine whether these analogues are selective for MPO, rather than being a general peroxidase inhibitor, thyroid peroxidase and lactoperoxidase were selected for oxidase evaluation. The effect of MA20 on the halogenation activities of MPO and thyroid peroxidase were compared by following the oxidation of ascorbate in the presence of chloride or iodide.

human neutrophils = assay: HOCl production by PMA-stimulated human neutrophils; format: cell-based; settings: 0.5 μM MA20, PMA 110 ng/ml 30 min
Description: as §2
The reaction was stopped by 251 μg/ml of catalase and 0.5 μM of MA20, and chlorination activity was measured. […] This effect is strikingly similar to MA20's inhibitory effect on purified MPO (FIG. 7C). […] As such, they prevent the production of HOCl without concomitant release of free radicals.

HEK293 = format: cell-based
Description: (§4) The securinine analog MPO inhibitors have favorable in vitro and in vivo toxicity profiles.

Skin fibroblast (BJ1) = format: cell-based
Description: as §4

[2] = system: mouse embryonic fibroblast (MEF); format: cell-based
Description: as §4

in vitro = in vitro ADME; settings: human, microsomes
Description: as §4

MPO [3] = target: T1, MPO; assay: UV/visible heme absorption spectra of MPO with compound/H2O2; format: binding; parameters: purchased Cayman Chemical 700170
Description: as §1
It was next set about to investigate the molecular target of the analogs (FIG. 6A). Cultured HL60 cells were treated with either Biotin/Biotin-INVMG1 (securinine) (10 μM) for 2 hr and pull-down experiments using streptavidin magnetic beads were used to pulldown bound molecules, followed by SDS-PAGE analysis (FIG. 6B). […] This 80 kDa protein band was excised, digested with trypsin, and the tryptic digests then analyzed using Mass Spectroscopy. […] The proteins bound to streptavidin beads were next separated using SDS-PAGE and incubated then with anti-human MPO antibody. […] To further confirm the binding of INVMG1 to MPO, the MPO enzyme was incubated with and without INVMG184B/H2O2, and analyzed absorption maxima using UV/visible.

MPO [4] = target: T1, MPO; assay: Chlorination assay with purified MPO (HOCl formation, APF fluorescence); format: biochemical; parameters: purchased Cayman Chemical 700170
Description: as §2
MPO's catalyzed enzymatic reaction consists of multiple stages (FIG. 3). Chlorination occurs when Complex-I produces hypochlorous acid (HOCl) in the presence of a chloride ion. […] Analogue MA20:
(§5) To determine the mechanism of this inhibition, the MPO enzyme was incubated with MA20 in the presence or absence of H2O2 for a set time and determined the reduction in chlorination activity of the enzyme. Residual activity was measured by diluting the reaction mixture by 150 fold. Incubation with either MA20 or H2O2 had minimal MPO inhibitory activity (approximately a 25-30% reduction in chlorination activity, FIG. 7E).

MPO [5] = target: T1, MPO; assay: Residual chlorination activity of MPO after incubation with or without H2O2, 150 fold dilution; format: biochemical; parameters: purchased Cayman Chemical 700170; settings: FIG. 7E
Description: as §2, §5

MPO [6] = target: T1, MPO; assay: Oxidation of ascorbate by MPO, H2O2 and chloride; format: biochemical; parameters: purchased Cayman Chemical 700170; settings: 1.0 μM, chloride
Description: as §2, §3

SMILES	nature of interaction with MPO (heme conjugate) (MPO [1])	effect on the iodination activity of thyroid peroxidase (thyroid peroxidase)	PMA-induced HOCl production by neutrophils (human neutrophils)	toxicity (cell survival) (HEK293)	toxicity (cell survival) (Skin fibroblast (BJ1))	toxicity (cell survival) [2]	half-life (in vitro) [h]	binding with the heme prosthetic group (Soret ~433 nm, peak ~630 nm) (MPO [3])	MPO inhibition activity assessed by chlorination activity (MPO [4]; FIG. 7B-C)	inhibition potency (chlorination) versus chloride ion concentration (MPO [4]; FIG. 7D)	mechanism of MPO inhibition (MPO [4]; preliminary data)	MPO activity after addition of compound and H2O2 (MPO [5]; MA20 and H2O2)	reduction in chlorination activity (MPO [5]; incubation with MA20 alone, without H2O2)	oxidation of ascorbate by MPO (MPO [6])
O=C1C=C2CC(S(=O)(=O)c3ccccc3)[C@@H]3C[C@@]2(O1)[C@H]1CCCCN31 (some centres unmarked) [INVS-MG-184B]	irreversible	–	–	–	–	–	–	–	–	–	–	–	–	–
O=C1C=C2C(S(=O)(=O)c3ccccc3)C[C@@H]3C[C@@]2(O1)C1CCCCN13 (some centres unmarked) [MA20]	–	negligible	significantly inhibited	significantly lower level of toxicity	significantly lower level of toxicity	significantly lower level of toxicity	~1.33	direct binding	highest MPO inhibition activity	decreased with increasing concentrations of the chloride ion	suicidal substrate	completely inhibited	25-30%	completely blocked
